From patent US5587374A, “10(1-hydroxyethyl)-11-oxo-1-azatricyclo/7.2.0.0.^3.8/ undec-2-ene-2-carboxylic acid esters and a process for preparing thereof” (Glaxo SpA, priority 1990, dated 1996)

Assays:
E. Coli = test: protection tests using mice, orally administered compounds (E. Coli); format: in vivo, mice infected with E. Coli; conditions: Escherichia coli, oral, protection test
Staph. aureus = test: protection tests using mice, orally administered compounds (Staph. aureus); conditions: Staphylococcus aureus, in Mus musculus, po, read-out: ED50 Staph. aureus
[1] = oral administration to mice, adverse effects; format: in vivo; conditions: orally administered, doses up to 1000 mg/kg
Excerpt: The compounds of the invention are also essentially non-toxic at therapeutically useful dose levels.

For CO/N=C(\C(=O)N[C@@H]1C(=O)N2C(C(=O)OC(C)OC(C)=O)=C(COC(N)=O)CS[C@H]12)c1ccco1 (stereo partly drawn) [Cefuroxime axetil, cefuroxime axetil, reference compound], which ED50 (E. Coli) is on record?
The ED50 was 26 mg/kg.

And the ED50 (Staph. aureus)?
Its ED50 is 6 mg/kg.

With CO[C@H]1CCC[C@H]2C1=C(C(=O)OC(C)OC(=O)OC1CCCCC1)N1C(=O)[C@H]([C@@H](C)O)[C@@H]21 (stereo partly drawn) [Example 1, 1-(Cyclohexyloxycarbonyloxy)ethyl (4S,8S,9R,10S,12R)-4-methoxy-10-(1'-hydroxyethyl)-11-oxo-1-azatricyclo-[7.2.0.0^3,8]undec-2-ene-2-carboxylate] as the compound, how does the ED50 (E. Coli) read?
The ED50 was less than 1 mg/kg.

And the adverse effects [1]?
Its adverse effects is “no adverse effects were observed”.

And the ED50 (Staph. aureus)?
The ED50 was less than 1 mg/kg.

For CO[C@H]1CCC[C@H]2C1=C(C(=O)OC(C)OC(=O)OC(C)C)N1C(=O)[C@H]([C@@H](C)O)[C@@H]21 (stereo partly drawn) [Example 3, 1-(Isopropyloxycarbonyloxy)ethyl (4S,8S,9R,10S,12R)-4-methoxy-10-(1'-hydroxyethyl)-11-oxo-1-azatricyclo-[7.2.0.0^3,8]undec-2-ene-2-carboxylate], which ED50 (E. Coli) is on record?
Its ED50 is less than 1 mg/kg.

What about the ED50 (Staph. aureus) of the same compound?
Its ED50 is less than 1 mg/kg.

Which ED50 (E. Coli) does the source give for CO[C@H]1CCC[C@H]2C1=C(C(=O)OCOC(=O)C(C)(C)C)N1C(=O)[C@H]([C@@H](C)O)[C@@H]21 [Example 10, [(1,1-Dimethyl-ethyl)carbonyloxy]methyl (4S,8S, 9R, 10S, 12R) -4-methoxy-10-(1'-hydroxyethyl)-11-oxo-1-azatricyclo[7.2.0.0^3,8]undec-2-ene-2-carboxylate] here?
The ED50 was less than 1 mg/kg.

What about the ED50 (Staph. aureus) of the same compound?
Its ED50 is less than 1 mg/kg.
